Patent US9139592B2, “Modulators of Nrf2 and uses thereof” (TRT PHARMA INC., priority 2010, dated 2015)
“Also recorded” adds a separate entry of the source.

Columns and labels:
Format in all cases: cell-based
[1] = test system: Nrf2 nuclear translocation in HepG2 cells; test: Western blot of nuclear Nrf2 (Nrf2 nuclear translocation) in HepG2 cells; conditions: 24 h
Description: (§1) Cells are treated with test compounds at designated concentrations and are harvested at 24 h. Sixty microgram of cell-lysate protein and 35 ug of nuclear extract are loaded into each lane, and electrophoresed through a 4-20% gradient SDS-PAGE gel (Bio-Rad, Mississauga, ON, Canada), and transferred onto a nitrocellulose membrane. The membrane is incubated with primary antibody and subsequently incubated with HRP-conjugated secondary antibody. Finally, ECL detection is carried out, and the results were recorded on X-ray film by autophotography.
(§2) The 23 top-score molecules from the first round of virtual screening are initially tested in the cell-based ARE-driven luciferase assay. Specifically, HepG2 cell line are transfected with ARE-driven pGL3 luciferase vector and then exposed to individual test compounds at 10, 50 μM. Classical Nrf2 inducers EQ and SFN were used as the positive controls. […] To examine the effect of these active compounds on Nrf2 nuclear translocation, Western blot analysis is used to measure the nuclear level of Nrf2 after cells are exposed to these compounds.

[2] = test system: ARE-driven luciferase activity (Nrf2) in HepG2 cells; test: ARE-driven luciferase assay in HepG2 cells; conditions: test compounds at 10, 50 μM, 24 h
Description: (§3) One representative ARE (A2-ARE) from GSTA2 is used in this work, and A2-ARE are cloned into the KpnI and MluI sites of pGL3-promoter vector, which contains a heterologous SV40 promoter and a firefly luciferase reporter gene. Cells are seeded at 1×10^5 per well using 24-well plate, grown overnight before being transfected transfected with pGL3 and other designated constructs using LipofectAMINE (Invitrogen) for 5 h. The plasmid pRL, containing a renilla reniformis luciferase reporter gene, is cotransfected as internal control to correct transfection efficiency. After transfection, cells are treated with test compounds at designated concentrations for 24 h prior to harvesting. The cells are then washed twice with phosphate-buffered saline and harvested in 100 uL of 1× passive lysis buffer (Promega, Madison, Wis., USA). The luciferase activities are analyzed in 20-uL cell extracts with the Dual luciferase Assay™ kit (Promega) on a Lumat LB 9507 luminometer (Berthold Technologies, Oak Ridge, Tenn., USA). The related luciferase activities are expressed as a ratio of the pGL3 reporter activity to that of the control plasmid pRL. The fold of induction is expressed as ratio of induction from the treated cells versus the untreated. Values represent measurements from three independent experiments performed in triplicate and are presented as the mean±SEM.
as §2

[3] = test system: γ-glutamylcysteine synthetase (GCS), a Nrf2-regulated protein, in HepG2 cells; test: Western blot of γ-glutamylcysteine synthetase (GCS) in HepG2 whole cell extracts; conditions: 24 h; for induction of GCS: whole cell protein extracts
Description: FIG. 3B illustrates endogenous γ-glutamylcysteine synthetase (GCS), a Nrf2-regulated protein, in whole cell protein extracts, detected by Western blotting. HepG2 cells were treated with EQ, SFN, DMSO, BM10, BM31 and BM40 at designated concentrations for 24 h.
as §1
Nrf2 is a master transcription factor regulating multiple ARE-regulated antioxidant and detoxifying enzymes, such as GCS, glutathione S-transferase (GST), NAD(P)H quinone oxidoreductase-1 (NQO1), and UDP glucuronosyltransferase (UGT), etc. The effects of our lead compounds on GCS are examined.

[4] = test system: MCF-7 cells; test: MCF-7 cell viability (MTT, 72 h); conditions: dose range 10 nM to 10 μM
Description: FIG. 9 illustrates MCF-7 cell survival curves for BM10, BM31, BM40 and SFN. MCF-7 cells were treated with test compounds at designated concentrations for 72 hours. Viable cells were evaluated by MTT assays. Experiments were performed in triplicate and repeated twice.
(§4) Cells are seeded at 4×10^3 per well using 96-well plate, grown overnight before being treated with test compounds for 72 h. Viable cells are measured by MTT assays. To evaluate the ability of test compounds in protecting MCF-7 cells from the damage of B[a]P, MCF-7 cells are seeded at 2×10^3 per well using 96-well plate, grown overnight before being treated with test compounds at designed concentration for 48 h. Next, cells are treated with 160 nM B[a]P in the presence of test compound for another 72 h. The viable cells are measured using MTT assays. Experiments are performed in triplicate and repeated twice.

[5] = test system: Keap1 mutants (C257S, C273S, C288S, C297S) / ARE-driven luciferase in 293T cells; test: ARE-driven luciferase assay in 293T cells co-transfected with Nrf2 and Keap1 IVR cysteine mutants; conditions: for effect of Keap1 C273S and C288S mutations on activation of ARE-driven luciferase activities / effect of Keap1 C297S mutant on potency in activating ARE-driven luciferase activities: 293T cells
Description: as §3
Keap1 is a multi-domain protein, in which the IVR domain contains 4 cysteine residues, C257, C273, C288 and C297. The known Nrf2 inducers may interact with these cysteine residues in the IVR domain, resulting in conformational change of Keap1 and ultimately activating Nrf2. To investigate the role of these active cysteine residues in the Nrf2-inducing activity of BM31, 4 Keap1 mutants (C257S, C273S, C288S and C297S) are tested. BM31 is selected for this and further investigation because the dose-response is consistent for its capability in inducing Nrf2 nuclear translocation and induction of enzyme GCS (FIG. 3). Co-transfection experiments to investigate the effects of Keap1 IVR cysteine mutants on ARE-driven luciferase activities are performed. Specifically, 293T cells are co-transfected with ARE-driven pGL3 luciferase report vector, Keap1 vector with and without the Nrf2 expression vector (FIG. 4). After transfection, the cells are exposed to BM31 at 50 μM for 16 h before harvest. The cell lysates are used for measurement of ARE-driven luciferase activities. […] Our conclusion is that BM31 targets the binding site around C297 in the IVR domain of Keap1, and mutation of residue C297 partially abolishes the Nrf2-inducing effect of BM31.

[6] = target: T1, Nrf2/Keap1 complex (Homo sapiens, UniProt Q14145); test: Co-IP of Keap1 and Nrf2 in co-transfected 293T cells; conditions: 293T cells co-transfected with Nrf2 and Keap1; 24 h; BM31 50 μM, SFN 5 μM
T1 construct: expressed in transfected cells; host or cells: 293T
Description: FIG. 5 illustrates 293T cell lysates immunoprecipitated with Keap1 antibody and the eluted proteins were immunoblotted with Nrf2 antibody. Lane 1: Nrf2 transfection; Lanes 2, 3, 4: Nrf2 and Keap1 co-transfection. Lanes 2, 3, 4: treated with DMSO, BM31 (50 μM) and SFN (5 μM), respectively.
To study the effect of BM31 on the interaction of Keap1 and Nrf2, Co-IP experiments are performed. 293T cells are successfully transfected and achieved high Nrf2 expression in this cell line. In the co-IP experiments, 293T cells are co-transfected with Nrf2 and Keap1 expression vectors. After transfection, the cells are treated with SFN and BM31 for 24 h before harvesting. The cell lysates are used for IP with Keap1 antibody. The eluted proteins are immunoblotted with Nrf2 antibody. […] For example, arsenic induces the Nrf2-dependent response through markedly enhancing the interaction between Keap1 and Cul3, subunits of the E3 ubiquitin ligase for Nrf2, which leads to impaired dynamic assembly/disassembly of the E3 ubiquitin ligase and thus decreases its ligase activity, resulting in inhibition of Nrf2 ubiquitination and degradation. Our further work will determine whether BM31 induces Nrf2 via a mechanism similar to that of arsenic.

[7] = test system: MCF-7 cells; test: Protection of MCF-7 cells from cytotoxic damage of B[a]P (MTT); conditions: low dose range 50 nM to 200 nM, 48 h pre-incubation, then 160 nM B[a]P + compound 72 h
Description: as §4
To test the capability of BM compounds in protecting against the cytotoxic effect of B[a]P, cellular assays using MCF-7 cells are performed. Incubation of MCF-7 cells with various concentrations of BM31 for 48 hours is followed by incubation with 160 nM B[a]P+the BM31 for 72 hours. MTT assays are performed to evaluate the protection effect of the BM31. DMSO without B[a]P was used as a control.

T1 sequence (Q14145 whole entry): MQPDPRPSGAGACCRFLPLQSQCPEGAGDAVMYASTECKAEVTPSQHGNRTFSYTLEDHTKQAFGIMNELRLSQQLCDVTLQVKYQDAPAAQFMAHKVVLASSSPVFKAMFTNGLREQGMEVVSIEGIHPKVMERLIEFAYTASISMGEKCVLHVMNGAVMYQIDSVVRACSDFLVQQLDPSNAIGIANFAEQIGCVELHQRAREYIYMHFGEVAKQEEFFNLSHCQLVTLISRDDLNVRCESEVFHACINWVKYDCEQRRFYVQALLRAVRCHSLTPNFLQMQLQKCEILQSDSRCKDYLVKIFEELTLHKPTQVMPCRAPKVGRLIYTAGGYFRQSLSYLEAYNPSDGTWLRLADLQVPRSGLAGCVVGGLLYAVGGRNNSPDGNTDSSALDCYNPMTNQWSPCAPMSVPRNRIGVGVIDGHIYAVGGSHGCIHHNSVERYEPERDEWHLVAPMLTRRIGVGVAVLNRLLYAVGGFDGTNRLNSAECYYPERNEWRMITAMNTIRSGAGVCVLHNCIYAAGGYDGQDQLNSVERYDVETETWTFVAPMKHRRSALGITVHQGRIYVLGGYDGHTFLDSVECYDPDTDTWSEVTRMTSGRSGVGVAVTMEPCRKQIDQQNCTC
T1 sequence (Q16236 whole entry partner): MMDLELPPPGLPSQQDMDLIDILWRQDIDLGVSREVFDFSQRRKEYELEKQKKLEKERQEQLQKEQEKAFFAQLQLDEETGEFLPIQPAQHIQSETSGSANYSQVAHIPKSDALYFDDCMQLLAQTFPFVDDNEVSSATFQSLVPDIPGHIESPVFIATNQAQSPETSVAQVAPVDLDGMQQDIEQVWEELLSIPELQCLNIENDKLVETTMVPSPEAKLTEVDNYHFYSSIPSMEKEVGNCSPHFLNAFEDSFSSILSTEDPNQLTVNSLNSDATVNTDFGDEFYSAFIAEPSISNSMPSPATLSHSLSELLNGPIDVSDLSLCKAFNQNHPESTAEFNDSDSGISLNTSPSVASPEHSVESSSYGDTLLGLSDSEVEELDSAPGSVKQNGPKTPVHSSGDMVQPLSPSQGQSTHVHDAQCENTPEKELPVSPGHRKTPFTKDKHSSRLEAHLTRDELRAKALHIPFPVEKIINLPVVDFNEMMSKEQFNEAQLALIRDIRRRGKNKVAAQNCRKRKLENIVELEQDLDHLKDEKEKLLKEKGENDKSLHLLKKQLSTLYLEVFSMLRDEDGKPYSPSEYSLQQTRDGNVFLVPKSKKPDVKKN

Cc1nnc(Cc2ccco2)c2[nH]nc(C)c12 [BM19]
induction of Nrf2 nuclear translocation (nuclear Nrf2 by Western blot) [1]: triggered Nrf2 nuclear translocation

Nc1nc(N)c2ncn(Cc3ccccc3)c2n1 [BM6]
induction of ARE-driven luciferase activities [2]: potently induce | induction of Nrf2 nuclear translocation (nuclear Nrf2 by Western blot) [1]: modest activity; also recorded: triggered Nrf2 nuclear translocation

Cc1n[nH]c2c(Cc3ccco3)nnc(O)c12 [BM18]
induction of ARE-driven luciferase activities [2]: potently induce | induction of Nrf2 nuclear translocation (nuclear Nrf2 by Western blot) [1]: modest activity; also recorded: triggered Nrf2 nuclear translocation

O=C(c1ccccc1)C1COc2ccccc2C1O (stereo not shown) [BM40]
induction of Nrf2 nuclear translocation (nuclear Nrf2 by Western blot) [1]: potent Nrf2 inducers; also recorded: triggered Nrf2 nuclear translocation | potency in elevating nuclear Nrf2 compared with SFN [1]: comparable to that of SFN | potency in inducing GCS compared with SFN and EQ [3]: comparable to that of SFN and EQ | induction of GCS [3]: induced expression | cytotoxic effects on proliferation of MCF-7 cells [4]: do not have cytotoxic effects

C[S+]([O-])CCCCN=C=S (stereo not shown) [SFN, sulforaphane, reference compound]
effect of Keap1 C273S and C288S mutations on activation of ARE-driven luciferase activities [5]: do not completely abolish | effect of Keap1 C297S mutant on potency in activating ARE-driven luciferase activities [5]: did not affect the potency | effect on Nrf2/Keap1 complex (Keap1 IP, Nrf2 immunoblot) [6]: increases the Nrf2/Keap1 complex

Clc1ncnc2c1ncn2[C@H]1CCCS1 [BM31]
induction of Nrf2 nuclear translocation (nuclear Nrf2 by Western blot) [1]: potent Nrf2 inducers; also recorded: triggered Nrf2 nuclear translocation | potency in elevating nuclear Nrf2 compared with SFN [1]: comparable to that of SFN | potency in inducing GCS compared with SFN and EQ [3]: comparable to that of SFN and EQ | induction of GCS [3]: induced expression | effect of Keap1 C273S and C288S mutations on activation of ARE-driven luciferase activities [5]: do not completely abolish | effect of Keap1 C297S mutant on potency in activating ARE-driven luciferase activities [5]: limits the potency; also recorded: abolished the Nrf2 induction activity | induction of ARE-driven luciferase activities with C257S, C273S or C288S mutant Keap1 ([5]; 293T cells co-transfected with ARE-pGL3, Nrf2 and mutant Keap1, BM31 50 μM, 16 h): potently induces | effect on Nrf2/Keap1 complex (Keap1 IP, Nrf2 immunoblot) [6]: increases the Nrf2/Keap1 complex | protection of MCF-7 cells from cytotoxic damage of B[a]P [7]: significant protection; also recorded: provides protections | cytotoxic effects on proliferation of MCF-7 cells [4]: do not have cytotoxic effects

Nc1nc(S)c2ncn(C3CCCCC3)c2n1 [BM9]
induction of Nrf2 nuclear translocation (nuclear Nrf2 by Western blot) [1]: modest activity; also recorded: triggered Nrf2 nuclear translocation

Ic1ncnc2c1ncn2[C@H]1CCCS1 [BM10]
induction of Nrf2 nuclear translocation (nuclear Nrf2 by Western blot) [1]: most potent; also recorded: triggered Nrf2 nuclear translocation | potency in elevating nuclear Nrf2 compared with SFN [1]: comparable to that of SFN | induction of GCS [3]: modest potency; also recorded: induced expression | cytotoxic effects on proliferation of MCF-7 cells [4]: do not have cytotoxic effects

O=C1C[C@@H](c2ccccc2)Oc2cc(O)cc(O)c21 [BM5]
induction of Nrf2 nuclear translocation (nuclear Nrf2 by Western blot) [1]: triggered Nrf2 nuclear translocation

COc1ccc2nc3cc(Cl)ccc3c(C#N)c2c1 [BM4]
induction of ARE-driven luciferase activities [2]: potently induce | induction of Nrf2 nuclear translocation (nuclear Nrf2 by Western blot) [1]: modest activity; also recorded: triggered Nrf2 nuclear translocation
